Data: patent US12612420B2, “Arginase inhibitors and methods of use thereof” (Molecure S.A., priority 2020, dated 2026)
Counter-ions that a name gives are not always drawn.

Assays:
[1] = molecular target: T1, recombinant human arginase 1 (hARG1) (Homo sapiens, UniProt P05089); assay: Human arginase inhibition assay (colorimetric urea detection), arginase 1; assay type: biochemical; conditions: IC50 class; hydrochloride salts; 1 h at 37° C., pH 7.4, 10 mM L-arginine, 200 μM MnCl2; read-out: Activity Class (ARG I)
T1 construct: made in house; host or cells: E. coli
T1 sequence (P05089 1-322): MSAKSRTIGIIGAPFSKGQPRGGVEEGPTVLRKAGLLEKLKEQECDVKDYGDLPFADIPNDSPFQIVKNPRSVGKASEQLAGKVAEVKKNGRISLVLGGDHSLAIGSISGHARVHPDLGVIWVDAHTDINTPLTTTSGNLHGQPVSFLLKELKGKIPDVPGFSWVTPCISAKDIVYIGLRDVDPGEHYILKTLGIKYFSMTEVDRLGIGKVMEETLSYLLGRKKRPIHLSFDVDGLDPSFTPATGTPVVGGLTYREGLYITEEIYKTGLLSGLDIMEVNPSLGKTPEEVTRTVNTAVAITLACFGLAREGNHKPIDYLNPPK
Procedure: (§1) Human Arginase Inhibition Assay
(§2) The inhibitory activities of the compounds of the invention were assessed using recombinant human arginases 1 and 2. Both enzymes were biosynthesized using a prokaryotic expression system (E. coli) and purified by fast protein liquid chromatography (FPLC). The compounds were screened in 96-well plates at the total reaction volume of 100 μL. Briefly, recombinant enzymes were incubated with the tested compounds for 1 h at 37° C. in the reaction buffer (100 mM sodium phosphate buffer, 130 mM NaCl, 1 mg/mL BSA, pH 7.4) containing substrate (L-arginine hydrochloride, 10 mM for hARG1 and 20 mM for hARG2) and cofactor (200 μM MnCl2). The assay is based on the detection of urea, which is generated during the conversion of L-arginine into L-omithine catalyzed by ARG1 or ARG2 (Baggio et al. J Pharmacol. Exp. Ther. 1999, 290, 1409-1416). The colorimetrically detectable product was developed by adding a mixture of reagent A (4 mM oPA, 50 mM boric acid, 1 M sulfuric acid, 0.03% Brij-35) and reagent B (4 mM NED, 50 mM boric acid, 1 M sulfuric acid, 0.03% Brij-35) in equal proportions. The absorbance for each well was measured at 515 nm and the enzyme inhibition was calculated. The urea production in the absence of any tested compound was considered as maximal enzyme activity. The absorbance at the absence of arginase (background) was subtracted from all the values. The normalized values were analyzed using GraphPad Prism 7.0 software by plotting inhibition curves and determining the IC50 values.
(§3) The inhibitory activity classes of the hydrochloride salts of the exemplary compounds according to the invention are presented in Table 1

[2] = molecular target: T2, recombinant human arginase 2 (hARG2) (Homo sapiens, UniProt P78540); assay: Human arginase inhibition assay (colorimetric urea detection), arginase 2; assay type: biochemical; conditions: IC50 class; hydrochloride salts; 1 h at 37° C., pH 7.4, 20 mM L-arginine, 200 μM MnCl2; read-out: Activity Class (ARG II)
T2 construct: made in house; host or cells: E. coli
T2 sequence (P78540 23-354): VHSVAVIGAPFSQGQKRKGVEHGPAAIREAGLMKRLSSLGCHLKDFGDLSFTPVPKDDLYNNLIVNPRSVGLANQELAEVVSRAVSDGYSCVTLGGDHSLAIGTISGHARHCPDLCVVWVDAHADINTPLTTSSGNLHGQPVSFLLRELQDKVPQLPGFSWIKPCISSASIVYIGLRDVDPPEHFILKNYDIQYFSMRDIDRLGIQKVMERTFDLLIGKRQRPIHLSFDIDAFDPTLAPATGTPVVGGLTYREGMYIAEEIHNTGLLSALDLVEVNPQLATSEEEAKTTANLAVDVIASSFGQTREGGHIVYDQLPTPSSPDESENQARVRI
Procedure: as §1, §2, §3

[3] = molecular target: T3, intracellular arginase in macrophages isolated from murine bone marrow (BMDM) (Mus musculus, UniProt Q61176); assay: Cell-based assay: intracellular arginase in bone marrow derived macrophages (BMDM), urea in culture medium; set-up: species or system murine (C57BL/6 mice); conditions: IC50 class; M2-polarised murine BMDM (M-CSF, TGF-β, IL-4), urea in medium after 24 hours
T3 construct: endogenous in cells; host or cells: primary bone-marrow-derived macrophages from C57BL/6 mice, cultured with M-CSF, TGF-β and IL-4
T3 sequence (Q61176 1-323): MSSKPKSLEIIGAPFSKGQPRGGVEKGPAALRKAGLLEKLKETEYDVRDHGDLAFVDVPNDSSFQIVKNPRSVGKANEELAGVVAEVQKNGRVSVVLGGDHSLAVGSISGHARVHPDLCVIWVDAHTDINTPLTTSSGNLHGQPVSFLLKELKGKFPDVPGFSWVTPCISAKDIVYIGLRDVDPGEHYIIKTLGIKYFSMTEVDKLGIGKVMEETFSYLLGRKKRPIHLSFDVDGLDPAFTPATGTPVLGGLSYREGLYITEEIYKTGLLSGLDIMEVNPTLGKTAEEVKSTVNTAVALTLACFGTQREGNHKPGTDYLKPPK
Procedure: To illustrate the lower cellular activity of the compounds according to the invention versus arginase inhibitors disclosed in U.S. Ser. No. 10/391,077 B2, the selected examples were tested in cell-based assay using murine primary macrophages. Lower intracellular activity observed for the compounds according to the invention may potentially result in lower hepatotoxicity compared to the arginase inhibitors disclosed in U.S. Ser. No. 10/391,077 B2.
Efficacy of Selected Examples Towards Intracellular Arginase in Macrophages Isolated from Murine Bone Marrow—Bone Marrow Derived Macrophages (BMDM)
Murine bone marrow-derived or peritoneal macrophages comprise a convenient in vitro model that enables differentiation of these cells towards M1 or M2 macrophages and further use for the study.
Materials & Methods: The assay was performed according to modified literature protocol (Pineda-Torra I et al., Methods Mol Biol. 2015; 1339:101-9. Mia S et al., Scand J Immunol. 2014 May; 79(5):305-14). The femurs and tibias were isolated from C57BL/6 mice. Bones were cleaned from all attached tissues by using a sterile swab without affecting the bone structure. The sides of the bones were cut off and flush with cold sterile PBS by using 26-G needle S into a 50 mL sterile tube with a cell strainer (Falcon™, Cat. No. U00149), until the bone cavity appeared white. Then, the cells were centrifuged (5 min at 500×G, 4° C.), washed twice with PBS and counted. Cells were plated in Petri dish in density of 1×10^6/mL and cultured in DMEM (Gibco, Cat. No. 31331-029) with 10% FBS, 1% pen-strep and 50 ng/mL M-CSF (PeproTech, Cat. No. 315-02), (37° C., 5% CO2). After five days cells were subcultured into P96 plate (BD, Cat. No. 353072) at the density of 64,000 cells/well in medium supplemented with 50 ng/mL M-CSF, 20 ng/mL TGF-β and 30 ng/mL IL-4 (Biomibo Cat. No. 214-1). One day later exemplary compounds (dissolved in PBS) were added in several different concentrations and 24 hours later the level of urea was measured in the culture medium in each well (Jung D et al., Clin Chem. 1975, 21(8):1136-40). The concentration of urea in the absence of any compound was considered as the maximum enzyme activity. The absorbance of cell culture media (background) was subtracted from all the values.
The IC50 values were calculated using GraphPad Prism 7.0. and assigned into the following classes: A=10-100 μM; and B>100 μM.

IC50 [1]	IC50 [2]	IC50 [3]	Compound
> 300 nM	> 300 nM	> 100000 nM	N[C@@H](Cc1ccccc1)C(=O)NC[C@@H]1CC[C@@H](CCB(O)O)C[C@]1(N)C(=O)O [Example 3, (1R,2S,5R)-1-Amino-2-(((S)-2-amino-3-phenylpropanamido)methyl)-5-(2-boronoethyl)cyclohexane-1-carboxylic acid dihydrochloride]
1 to 99 nM	> 300 nM	> 100000 nM	CC[C@H](C)[C@H](N)C(=O)NC[C@@H]1CC[C@@H](CCB(O)O)C[C@]1(N)C(=O)O [Example 10, (1R,2S,5R)-1-Amino-2-(((2S,3S)-2-amino-3-methylpentanamido)methyl)-5-(2-boronoethyl)cyclohexane-1-carboxylic acid dihydrochloride]
1 to 99 nM	200 to 299 nM	10000 to 100000 nM	CSCC[C@H](N)C(=O)NC[C@@H]1CC[C@@H](CCB(O)O)C[C@]1(N)C(=O)O [Example 17, (1R,2S,5R)-1-Amino-2-(((S)-2-amino-4-(methylthio)butanamido)methyl)-5-(2-boronoethyl)cyclohexane-1-carboxylic acid dihydrochloride]
100 to 199 nM	200 to 299 nM	10000 to 100000 nM	CC(C)[C@H](N)C(=O)NC[C@@H]1CC[C@@H](CCB(O)O)C[C@]1(N)C(=O)O [Example 2, (1R,2S,5R)-1-Amino-2-(((S)-2-amino-3-methylbutanamido)methyl)-5-(2-boronoethyl)cyclohexane-1-carboxylic acid dihydrochloride]
1 to 99 nM	> 300 nM	> 100000 nM	N=C(N)NCCC[C@H](N)C(=O)NC[C@@H]1CC[C@@H](CCB(O)O)C[C@]1(N)C(=O)O [Example 13, (1R,2S,5R)-1-Amino-2-(((S)-2-amino-5-guanidinopentanamido)methyl)-5-(2-boronoethyl)cyclohexane-1-carboxylic acid trihydrochloride]
> 300 nM	> 300 nM		CC(C)[C@H](N)C(=O)NC[C@H]1CC[C@@H](CCB(O)O)C[C@]1(N)C(=O)O [Example 34, (1R,2R,5R)-1-Amino-2-(((S)-2-amino-3-methylbutanamido)methyl)-5-(2-boronoethyl)cyclohexane-1-carboxylic acid dihydrochloride]
200 to 299 nM	> 300 nM		CC(C)[C@@](C)(N)C(=O)NC[C@@H]1CC[C@@H](CCB(O)O)C[C@]1(N)C(=O)O [Example 21, (1R,2S,5R)-1-Amino-2-((2-amino-2,3-dimethylbutanamido)methyl)-5-(2-boronoethyl)cyclohexane-1-carboxylic acid dihydrochloride]
100 to 199 nM	> 300 nM		N[C@@H](CO)C(=O)NC[C@@H]1CC[C@@H](CCB(O)O)C[C@]1(N)C(=O)O [Example 7, (1R,2S,5R)-1-Amino-2-(((S)-2-amino-3-hydroxypropanamido)methyl)-5-(2-boronoethyl)cyclohexane-1-carboxylic acid dihydrochloride]
1 to 99 nM	> 300 nM	> 100000 nM	N[C@]1(C(=O)O)C[C@H](CCB(O)O)CC[C@H]1CNC(=O)[C@@H]1CCCN1 [Example 5, (1R,2S,5R)-1-Amino-5-(2-boronoethyl)-2-(((S)-pyrrolidine-2-carboxamido)methyl)cyclohexane-1-carboxylic acid dihydrochloride]
1 to 99 nM	> 300 nM	> 100000 nM	NCC(=O)NC[C@@H]1CC[C@@H](CCB(O)O)C[C@]1(N)C(=O)O [Example 4, (1R,2S,5R)-1-Amino-2-((2-aminoacetamido)methyl)-5-(2-boronoethyl)cyclohexane-1-carboxylic acid dihydrochloride]
1 to 99 nM	> 300 nM	> 100000 nM	NCCCC[C@H](N)C(=O)NC[C@@H]1CC[C@@H](CCB(O)O)C[C@]1(N)C(=O)O [Example 9, (1R,2S,5R)-1-Amino-5-(2-boronoethyl)-2-(((S)-2,6-diaminohexanamido)methyl)cyclohexane-1-carboxylic acid trihydrochloride]
1 to 99 nM	> 300 nM		CC(C)[C@H](N)C(=O)N(C)C[C@@H]1CC[C@@H](CCB(O)O)C[C@]1(N)C(=O)O [Example 25, (1R,2S,5R)-1-Amino-2-(((S)-2-amino-N,3-dimethylbutanamido)methyl)-5-(2-boronoethyl)cyclohexane-1-carboxylic acid dihydrochloride]
100 to 199 nM	> 300 nM		C[C@@H](O)[C@H](N)C(=O)NC[C@@H]1CC[C@@H](CCB(O)O)C[C@]1(N)C(=O)O [Example 19, (1R,2S,5R)-1-Amino-2-(((2S,3R)-2-amino-3-hydroxybutanamido)methyl)-5-(2-boronoethyl)cyclohexane-1-carboxylic acid dihydrochloride]
100 to 199 nM	> 300 nM		CNCC(=O)NC[C@@H]1CC[C@@H](CCB(O)O)C[C@]1(N)C(=O)O [Example 31, (1R,2S,5R)-1-Amino-5-(2-boronoethyl)-2-((2-(methylamino)acetamido)methyl)cyclohexane-1-carboxylic acid dihydrochloride]
